The test system of experiment [1] is U-251 MG. The experiment in a line: cells. The arrangement: glioma cell line sensitivity to 2OHOA, half maximal inhibitory concentration. To be noted: Homo sapiens, U-251.
Experiment [2] concerns U-87 MG. The experiment in a line: cells. The arrangement: glioma cell line sensitivity to 2OHOA, half maximal inhibitory concentration. To be noted: Homo sapiens, U-87 MG.
Experiment [3] deals with SF-268. The experiment in a line: cells. The arrangement: glioma cell line sensitivity to 2OHOA, half maximal inhibitory concentration. To be noted: Homo sapiens, SF-268.
For experiment [4], the system named is SF-295. The experiment in a line: cells. On the set-up: glioma cell line sensitivity to 2OHOA, half maximal inhibitory concentration. To be noted: Homo sapiens, SF-295.
For experiment [5], the system named is U-118 MG. Briefly: cells. The arrangement: glioma cell line sensitivity to 2OHOA, half maximal inhibitory concentration. To be noted: Homo sapiens, U-118-MG.
For experiment [6], the target named is T1, furin (Homo sapiens, UniProt P09958).
T1 construct: commercial recombinant Human Furin
T1 sequence (P09958 108-794): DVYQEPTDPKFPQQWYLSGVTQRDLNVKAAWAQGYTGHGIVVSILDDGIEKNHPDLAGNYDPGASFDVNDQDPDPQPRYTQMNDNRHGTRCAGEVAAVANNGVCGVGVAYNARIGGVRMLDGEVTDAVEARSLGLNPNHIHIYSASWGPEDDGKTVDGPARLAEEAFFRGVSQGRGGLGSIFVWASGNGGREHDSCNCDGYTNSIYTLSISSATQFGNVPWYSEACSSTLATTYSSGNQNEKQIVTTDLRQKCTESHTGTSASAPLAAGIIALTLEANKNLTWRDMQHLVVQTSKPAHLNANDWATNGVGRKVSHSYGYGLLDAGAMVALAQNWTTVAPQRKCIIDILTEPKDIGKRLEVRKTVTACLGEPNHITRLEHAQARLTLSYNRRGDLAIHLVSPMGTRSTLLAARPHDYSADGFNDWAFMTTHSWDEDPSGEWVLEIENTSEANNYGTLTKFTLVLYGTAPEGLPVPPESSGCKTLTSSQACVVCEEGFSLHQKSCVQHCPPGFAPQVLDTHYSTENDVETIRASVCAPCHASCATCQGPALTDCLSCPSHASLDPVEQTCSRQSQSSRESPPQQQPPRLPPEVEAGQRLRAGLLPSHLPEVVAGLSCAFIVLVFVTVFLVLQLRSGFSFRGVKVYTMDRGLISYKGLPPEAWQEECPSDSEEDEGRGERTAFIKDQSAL
Briefly: SPR (Biacore X100, furin amine-coupled on CM5, steady-state affinity); also inhibits recombinant furin in a fluorimetric assay. It is filed as binding. (In SPR one partner is held on a chip, and binding of the other changes the refractive index at the surface.)

This passage reports IC50 and Kd results from article PMC11996967, “Targeting the Notch-Furin axis with 2-hydroxyoleic acid: a key mechanism in glioblastoma therapy” (Cellular Oncology, 2024).

The term IC50 denotes the concentration at which inhibition is half-maximal. The term Kd denotes a measure of binding affinity in units of concentration. In the case of `CCCCCCCC/C=C\CCCCCCC(O)C(=O)O` (stereo not drawn) [2OHOA, 2-hydroxy-9-cis-ocadecenoic acid], the IC50 is 427 µM in experiment [1]; 172 µM in experiment [2]; 240 µM in experiment [3]; 300 µM in experiment [4]; 180 µM in experiment [5]. Further, in experiment [6], the Kd came out at 19.5 µM.
